{"source": "patent US20230292757A1", "about": "“SYNERGISTIC AGROCHEMICAL COMPOSITION COMPRISING DIAMIDES AND PLANT GROWTH REGULATORS” (priority 2020, published 2023)", "origin": "cited, not measured here", "key": {"[1]": {"system": "S. littoralis", "settings": "oral"}, "[2]": {"system": "L. migratoria", "settings": "oral"}}}
{"smiles": "C=C1C[C@]23C[C@@]1(O)CC[C@H]2[C@@]12C=C[C@H](O)[C@@](C)(C(=O)O1)[C@H]2[C@@H]3C(=O)O", "note": "[Gibberellic acid (GA3), Gibberellic acid]", "values": [{"measurement": "food consumption", "setting": "[1]", "value": "significant reduction"}, {"measurement": "food consumption", "setting": "[2]", "value": "significant reduction"}]}
